Laboratory results from patent US8546377B2 (AbbVie Inc., priority 2009, dated 2013).
Read-outs that look alike come from different tables or passages of the source.

Key:
[1] = biological target: T1, 5HT2C receptors (Homo sapiens, UniProt P28335); experiment: Human 5-HT2C functional assay in CHO-K1 cells (calcium flux, FLIPR); assay type: cell-based; set-up: expressed in transfected cells; host or cells: CHO-K1 cells; conditions: for Emax: percentage relative to the effect of serotonin
T1 sequence (P28335 33-458): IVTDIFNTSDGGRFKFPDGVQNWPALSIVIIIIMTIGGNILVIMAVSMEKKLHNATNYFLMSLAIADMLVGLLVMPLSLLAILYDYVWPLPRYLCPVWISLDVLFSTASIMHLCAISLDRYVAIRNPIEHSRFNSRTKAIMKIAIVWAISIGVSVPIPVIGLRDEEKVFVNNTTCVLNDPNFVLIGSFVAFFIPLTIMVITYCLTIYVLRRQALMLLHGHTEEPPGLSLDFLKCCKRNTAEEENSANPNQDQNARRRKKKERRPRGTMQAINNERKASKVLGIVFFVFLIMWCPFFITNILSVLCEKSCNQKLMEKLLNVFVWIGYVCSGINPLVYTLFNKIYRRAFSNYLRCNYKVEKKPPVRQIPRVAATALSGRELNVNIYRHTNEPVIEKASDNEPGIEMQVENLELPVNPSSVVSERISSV
How it was run: (§1)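 EC50 came from a 4-parameter logistic fit, with Emax expressed relative to serotonin, of intracellular Ca2+ rises read on FLIPR at 480/530 nm, 25° C, over 3 min. Compounds ran from 10 μM in six 1:10 steps (0.2% DMSO) on serum-starved CHO-K1 transfectants pre-loaded 60 min with Ca4 dye and probenecid.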

[2] = biological target: T1, 5HT2C receptors; experiment: Human 5-HT2C functional assay in 1321N1 cells (intracellular calcium, FLIPR); assay type: cell-based; set-up: expressed in transfected cells; host or cells: 1321N1 cells; conditions: for EC50: 1321N1 cells stably transfected, maximum calcium response, read-out: EC50 (μM), 5-HT2c Agonist Activity; for Emax: 1321N1 cells, percentage relative to the effect of serotonin, read-out: Emax (%), 5-HT2c Agonist Activity
Protocol: (ii) Human 5-HT2C Functional Assay in 1321N1 Cells
Functional activity was determined by testing the effect of the compounds on intracellular calcium levels in 1321N1 cells stably transfected with the human 5-HT2C receptor. Cells were seeded into 96-well plates at 50,000 cells/well and grown overnight in tissue culture medium (DMEM with Glutamax I (Invitrogen), containing 10% dFCS, 50 μg/mL Gentamicin, 400 μg/mL Geneticin) at 37° C. and 7% CO2. Growth medium was replaced by medium without dFCS for overnight incubation. Cells were loaded with a fluorescent calcium-sensitive dye in the presence of 1% probenicid according to the manufacturer's protocol (Fluo4 AM, Molecular Devices). Serial compound dilutions (final concentrations 10^−10 to 10^−5 M) were added to the cells either alone or in the presence of serotonin (10^−9 M) and the maximum calcium response was determined using a FLIPR instrument (Molecular Devices). Concentration-response curves were fitted using a four-parameter logistic equation (GraphPad Prism). The concentration at which the compound exerts half its maximal effect is named the ‘effective concentration 50’ or ‘EC50’ and is listed in Table 2.
Emax is the maximum functional response or efficacy expressed as a percentage relative to the effect of serotonin.

[3] = biological target: T2, human serotonin 5-HT2c receptor (Homo sapiens, UniProt P28335); experiment: Human 5-HT2C receptor radioligand binding assay (agonist site, [125I](±)DOI); conditions: membranes of transfected CHO cells, 0.2 nM [125I](±)DOI, 15 minutes at 37° C.
T2 construct: expressed in transfected cells; host or cells: CHO cells (membrane homogenate)
T2 sequence (P28335 33-458): T1 sequence (P28335 33-458)
Protocol: To determine the effectiveness of compounds having a formula (I), these compounds can be evaluated in a radioligand binding assay for the agonist site of the human serotonin 5-HT2c receptor or in vitro models of cellular function.
(i) Human 5-HT2C Receptor Radioligand Binding Assay
Affinity of compounds for the agonist site of the 5-HT2c receptor in transfected CHO cells was determined in a radioligand binding assay essentially as described by Bryant, H. U., et al., Life Sciences (1996) 59(15), 1259-1268.

[4] = biological target: T3, 5HT2B receptors (Homo sapiens, UniProt P41595); experiment: Human 5-HT2B functional assay in CHO-K1 cells (calcium flux, FLIPR); assay type: cell-based; conditions: for Emax: CHO-K1, read-out: Emax (%), 5-HT2B Agonist Activity
T3 construct: expressed in transfected cells; host or cells: CHO-K1 cells
T3 sequence (P41595 whole entry): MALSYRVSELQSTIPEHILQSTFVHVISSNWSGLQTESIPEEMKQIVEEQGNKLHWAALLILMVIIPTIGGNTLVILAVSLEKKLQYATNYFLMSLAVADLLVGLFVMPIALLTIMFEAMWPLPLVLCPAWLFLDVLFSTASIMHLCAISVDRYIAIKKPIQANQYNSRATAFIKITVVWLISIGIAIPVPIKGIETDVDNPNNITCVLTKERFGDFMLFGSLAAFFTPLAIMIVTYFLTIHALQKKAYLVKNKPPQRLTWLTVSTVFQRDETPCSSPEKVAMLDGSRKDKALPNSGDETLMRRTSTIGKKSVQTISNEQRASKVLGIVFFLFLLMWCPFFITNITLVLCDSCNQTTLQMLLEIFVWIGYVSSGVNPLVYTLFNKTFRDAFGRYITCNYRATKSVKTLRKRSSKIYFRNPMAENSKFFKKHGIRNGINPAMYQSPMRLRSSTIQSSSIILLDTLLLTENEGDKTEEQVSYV
How it was run: as §1

[5] = biological target: T4, h-5-HT6 receptor (Homo sapiens, UniProt P50406); experiment: Human 5-HT6 receptor radioligand binding assay ([3H]-LSD, HEK293 membranes); conditions: HEK293 membranes, 1 nM [3H]-lysergic acid diethylamide, 3.5 hours at room temperature; read-out: Ki (μM), 5-HT6 Agonist Site Radioligand Binding
T4 construct: expressed in transfected cells; host or cells: HEK293 cells (membrane preparation)
T4 sequence (P50406 whole entry): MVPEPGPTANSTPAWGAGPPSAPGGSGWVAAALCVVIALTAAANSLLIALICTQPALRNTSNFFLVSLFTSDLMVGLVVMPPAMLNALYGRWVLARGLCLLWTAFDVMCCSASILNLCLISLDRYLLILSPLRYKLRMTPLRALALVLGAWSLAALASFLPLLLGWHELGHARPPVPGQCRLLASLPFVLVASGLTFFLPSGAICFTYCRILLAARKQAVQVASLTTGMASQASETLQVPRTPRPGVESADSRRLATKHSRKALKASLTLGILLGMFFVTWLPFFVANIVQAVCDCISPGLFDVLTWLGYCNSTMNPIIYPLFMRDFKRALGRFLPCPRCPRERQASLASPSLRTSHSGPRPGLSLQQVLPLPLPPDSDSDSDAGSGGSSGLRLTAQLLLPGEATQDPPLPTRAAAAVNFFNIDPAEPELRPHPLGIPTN
Protocol: (iv) Human 5-HT6 Receptor Radioligand Binding Assay
Preparation of Membranes by Ultrasonic Treatment and Differential Centrifugation
Cells from stable clonal cell lines expressing the corresponding receptor (5-HT6) were washed with PBS (without Ca^++, Mg^++) and harvested in PBS with 0.02% EDTA. The cells were collected by centrifugation at 500 g for 10 minutes at 4° C., washed with PBS and centrifuged (500 g, 10 minutes at 4° C.). The pellets were stored at −80° C. until use. For membrane preparation, the thawed cell pellet was resuspended in ice-cold sucrose buffer (0.25 M sucrose, 10 mM HEPES (pH 7.4), 1 mM phenylmethylsulfonyl fluoride (PMSF) in DMSO, 5 μg/ml Pepstatin-A, 3 mM EDTA, 0.025% Bacitracin) and homogenized with a Branson Sonifier W-250 (Settings: Timer 4; Output Control 3; Duty Cycle constant; 2 to 3 cycles). Cell disruption was checked with the aid of a microscope. Remaining unbroken cells were pelleted at 1,000 g for 10 minutes at 4° C. The sucrose buffer supernatant was then centrifuged at 60,000 g for 1 hour at 4° C. (Beckman Ultrazentrifuge XL 80). The pellet was resuspended in 30 mL of ice-cold Tris buffer (20 mM TRIS (pH 7.4), 5 μg/mL Pepstatin A, 0.1 mM PMSF, 3 mM EDTA) by pipetting through a 10 mL serological pipet and centrifuged for 1 hour at 4° C. at 60,000 g. A final resuspension was performed in a small volume of ice-cold Tris buffer (see above) by pressing through a serological pipet followed by ultrasonic treatment with a Branson Sonifier W-250 (Settings: Timer 1; Output Control 3; Duty Cycle constant; 1 cycle). Protein concentration was determined (BCA-Kit; Pierce) and aliquots stored at −80° C. or in liquid nitrogen for long-term storage.
Receptor Binding Experiments
All receptor binding experiments were carried out in the corresponding assay buffer in a total volume of 200 μL in the presence of various concentrations of test compound (10^−5 M to 10^−9 M, tenfold serial dilution, duplicate determinations). The assays were terminated by filtration on polyethylenimine (PEI 0.1% or 0.3%) presoaked Packard Unifilter Plates (GF/C or GF/B) with a Tomtec MachIII U 96 well-plate harvester. After the plates had been dried for 2 hours at 55° C. in a drying chamber scintillation cocktail (BetaPlate Scint; PerkinElmer) was added. Radioactivity was measured in a Microbeta Trilux two hours after the addition of the scintillation mixture.
5-HT6 Receptor Binding Assay
HEK293 cells stably expressing the h-5-HT6 receptor (NCBI Reference Sequence XM 001435) were cultured in RPMI1640 medium supplemented with 25 mM HEPES, 10% fetal calf serum and 1-2 mM glutamine. The membrane preparation was performed as described above. […] On the day of the assay, the membranes were thawed, diluted in assay buffer (50 mM Tris-HCl, 5 mM CaCl2, 0.1% ascorbic acid, 10 μM pargyline, pH 7.4) to a concentration of 8 μg protein/assay and homogenized by gentle vortexing. […] Non-specific binding was defined with 1 μM methiothepin. The binding reaction was carried out for 3.5 hours at room temperature. During the incubation, the plates were shaken on a plate shaker at 100 rpm and terminated by filtration on Packard Unifilter GF/C (0.1% PEI) plates, followed by 2 wash cycles with ice-cold 50 mM Tris-HCl, 5 mM CaCl2.
Data derived from liquid scintillation counting were analyzed by iterative non-linear regression analysis with the use of the Statistical Analysis System (SAS): a program similar to “LIGAND” as described by Munson and Rodbard (Anal. Biochem. 1980, 107, 220-239). Fitting was performed according to formulae described by Feldman (Anal. Biochem. 1972, 48, 317-338). IC50, nH and Ki values were expressed as geometrical mean.
The results of the receptor binding studies are expressed as receptor binding constants Ki(5-HT6) as described herein before, and given in Table 5.

[6] = CHO-K1, read-out: Emax (%), 5-HT2c Agonist Activity, CHO-K1 cells

EC50 ([1]; CHO-K1 cells over-expressing 5HT2C, calcium flux, read-out: EC50 (μM), 5-HT2c Agonist Activity) | Emax ([1]; CHO-K1 cells, read-out: Emax (%), 5-HT2c Agonist Activity) | EC50 ([4]; CHO-K1 cells over-expressing 5HT2B, calcium flux, read-out: EC50 (μM), 5-HT2B Agonist Activity) | Ki [5] | Structure (SMILES) | EC50 [1] | Emax [1, 6] | EC50 [2] | Emax [2] | Ki [3] | EC50 [4] | Emax [4]
– | – | – | – | Cc1ccc2c(c1)N1CCNC[C@@H]1CC(=O)N2 [Example 36, (4aS)-10-methyl-1,2,3,4,4a,5-hexahydropyrazino[1,2-a][1,5]benzodiazepin-6(7H)-one] | 0.002 µM | > 120% | 0.0015 µM | 104% | 0.0091 µM | 0.008 µM | 100%
– | – | – | – | O=C1C[C@H]2CNCCN2c2cc(Cl)c(Cl)cc2N1 [Example 37, (4aS)-9,10-dichloro-1,2,3,4,4a,5-hexahydropyrazino[1,2-a][1,5]benzodiazepin-6(7H)-one] | 0.0008 µM | 100% | 0.0032 µM | 99.5% | 0.014 µM | 0.003 µM | 100%
– | – | – | – | CN1CCN2c3ccccc3NC(=O)CC2C1 (stereo not shown) [Example 38, 3-methyl-1,2,3,4,4a,5-hexahydropyrazino[1,2-a][1,5]benzodiazepin-6(7H)-one] | 0.08 µM | 100% | 0.0663 µM | 68% | 0.2 µM | > 10 µM | –
– | – | – | – | Cc1cccc2c1NC(=O)CC1CNCCN21 (stereo not shown) [Example 40, 8-methyl-1,2,3,4,4a,5-hexahydropyrazino[1,2-a][1,5]benzodiazepin-6(7H)-one] | 0.005 µM | 110% | 0.0068 µM | 89.5% | 0.035 µM | > 10 µM | –
– | – | – | – | O=C1C[C@H]2CNCCN2c2cc(Cl)ccc2N1 [Example 41, (4aS)-10-chloro-1,2,3,4,4a,5-hexahydropyrazino[1,2-a][1,5]benzodiazepin-6(7H)-one] | 0.0008 µM | > 120% | 0.002 µM | 99.5% | 0.005 µM | 0.006 µM | 110%
– | – | – | – | COc1ccc2c(c1)N1CCNC[C@@H]1CC(=O)N2 [Example 43, (4aS)-10-methoxy-1,2,3,4,4a,5-hexahydropyrazino[1,2-a][1,5]benzodiazepin-6(7H)-one] | 0.01 µM | > 120% | 0.0138 µM | 86% | 0.066 µM | 0.06 µM | 80%
0.03 µM | > 120% | > 10 µM | – | CCOc1ccc2c(c1)N1CCNCC1CC(=O)N2 (stereo not shown) [Example 44, 10-ethoxy-1,2,3,4,4a,5-hexahydropyrazino[1,2-a][1,5]benzodiazepin-6(7H)-one] | – | – | 0.0445 µM | 90% | 0.15 µM | – | –
– | – | – | – | O=C1NCC2CNCCN2c2ccccc21 (stereo not shown) [Example 46, 2,3,4,4a,5,6-hexahydropyrazino[1,2-a][1,4]benzodiazepin-7(1H)-one] | 0.008 µM | > 120% | 0.0059 µM | 93% | 0.033 µM | 0.3 µM | 80%
– | – | – | 0.0024 µM | O=C1CC2CNCCN2c2ccc(NS(=O)(=O)c3ccccc3-c3ccccc3)cc2N1 (stereo not shown) [Example 97, N-(6-oxo-1,2,3,4,4a,5,6,7-octahydropyrazino[1,2-a][1,5]benzodiazepin-9-yl)biphenyl-2-sulfonamide] | – | – | – | – | – | – | –
– | – | – | 0.0224 µM | Cc1ccccc1S(=O)(=O)Nc1ccc2c(c1)NC(=O)CC1CNCCN21 (stereo not shown) [Example 98, 2-methyl-N-(6-oxo-1,2,3,4,4a,5,6,7-octahydropyrazino[1,2-a][1,5]benzodiazepin-9-yl)benzenesulfonamide] | – | – | – | – | – | – | –
– | – | – | 0.0221 µM | Cc1ccc(S(=O)(=O)Nc2ccc3c(c2)NC(=O)CC2CNCCN32)cc1 (stereo not shown) [Example 99, 4-methyl-N-(6-oxo-1,2,3,4,4a,5,6,7-octahydropyrazino[1,2-a][1,5]benzodiazepin-9-yl)benzenesulfonamide] | – | – | – | – | – | – | –
– | – | – | 0.0475 µM | Cc1cccc(S(=O)(=O)Nc2ccc3c(c2)NC(=O)CC2CNCCN32)c1 (stereo not shown) [Example 100, 3-methyl-N-(6-oxo-1,2,3,4,4a,5,6,7-octahydropyrazino[1,2-a][1,5]benzodiazepin-9-yl)benzenesulfonamide] | – | – | – | – | – | – | –
– | – | – | 0.0223 µM | O=C1CC2CNCCN2c2ccc(NS(=O)(=O)c3cccc(Cl)c3)cc2N1 (stereo not shown) [Example 101, 3-chloro-N-(6-oxo-1,2,3,4,4a,5,6,7-octahydropyrazino[1,2-a][1,5]benzodiazepin-9-yl)benzenesulfonamide] | – | – | – | – | – | – | –
